6 compounds from US10870638B2, “Pyridazinone compound or its salt, and herbicide containing it” (ISHIHARA SANGYO KAISHA, LTD., priority 2016, dated 2020) can be followed below.

Holding throughout (experiment): Test Example 1: foliar treatment, growth inhibition rate on 14th day
Holding throughout (assay type): in vivo
What all share (conditions): active ingredient amount 31 g/ha, 14th day after application

Assay [1] has as its system wheat (Triticum aestivum L.). A digest of the protocol: (§1)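 Visual 0–100% inhibition scoring (100 = complete kill) at 14 days after foliar treatment of soil-grown seedlings at species-specific leaf stages, with the compound sprayed as a wettable powder or emulsifiable concentrate dilution.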
Assay [2] has as its system barnyardgrass (Echinochloa crus-qalli L.). A digest of the protocol:
as §1

The test system of assay [3] is italian ryegrass (Lolium multiflorum Lam.). The procedure, abridged: as §1
For assay [4], the system named is corn (Zea mays L.). A digest of the protocol:
as §1

In assay [5] the test system is wild oat (Avena fatua L.). A digest of the protocol:
(§2)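 Compounds applied once to leaves of pot-grown plants; wild oat at 0.4–1.2 leaf, foxtail 0.5–3.2, rice 0.2–2.7, soybean primary leaf. Inhibition estimated by eye on day 14.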

Assay [6] concerns redroot pigweed (Amaranthus retroflexus L.). The procedure, abridged:
as §1

In assay [7] the test system is rice (Oryza sativa L.). The procedure, abridged: as §2
Assay [8] relates to green foxtail (Setaria viridis L.). The procedure, abridged:
as §2

Assay [9] has as its system soybean (Glycine max Merr.). The procedure, abridged:
as §2

Assay [10] concerns crabgrass (Digitaria sanquinalis L.). A digest of the protocol: as §1

Turning to `COC(=O)OC(C)Oc1cnn(C)c(=O)c1-c1cc(Oc2nc3ccc(Cl)cc3o2)ccc1C` (stereo not drawn) [Compound 2-178], the “Growth inhibition rate (%) Wheat” value in assay [1] is on record as 75%. Also, the “Growth inhibition rate (%) Barnyardgrass” value in assay [2] is 100%. The “Growth inhibition rate (%) Italian ryegrass” value in assay [3] amounted to 98%. Moreover, the “Growth inhibition rate (%) Corn” value in assay [4] is on record as 83%. In assay [5], the “Growth inhibition rate (%) Wild oat” value was found to be 95%. For the same compound, the “Growth inhibition rate (%) Redroot pigweed” value in assay [6] is 0%. For the same compound, the “Growth inhibition rate (%) Rice” value in assay [7] worked out at 15%. Moreover, in assay [8], the “Growth inhibition rate (%) Green foxtail” value is 100%. Besides, the “Growth inhibition rate (%) Soybean” value in assay [9] amounted to 0%. Moreover, in assay [10], the “Growth inhibition rate (%) Crabgrass” value was 100%.
Turning to `Cc1ccc(Oc2nc3ccc(Cl)cc3o2)cc1-c1c(O)cnn(CC(F)F)c1=O` [Compound 2-179], the “Growth inhibition rate (%) Wheat” value in assay [1] was determined as 10%. Further, the “Growth inhibition rate (%) Barnyardgrass” value in assay [2] was found to be 88%. In [3], the “Growth inhibition rate (%) Italian ryegrass” value came out at 0%. Moreover, the “Growth inhibition rate (%) Corn” value in [4] is recorded as 75%. The “Growth inhibition rate (%) Wild oat” value in [5] came to 0%. In addition, the “Growth inhibition rate (%) Redroot pigweed” value in [6] amounted to 0%. For the same compound, in assay [7], the “Growth inhibition rate (%) Rice” value is 0%. Also, the “Growth inhibition rate (%) Green foxtail” value in assay [8] is recorded as 100%. Besides, the “Growth inhibition rate (%) Soybean” value in [9] came out at 0%. Further, the “Growth inhibition rate (%) Crabgrass” value in assay [10] is listed as 98%.
On to `Cc1ccc(Oc2nc3cc(Br)ccc3o2)cc1-c1c(O)cnn(C)c1=O` [Compound 2-183], for which the “Growth inhibition rate (%) Wheat” value in [1] is listed as 90%. For the same compound, the “Growth inhibition rate (%) Barnyardgrass” value in [2] stood at 95%. Also, the “Growth inhibition rate (%) Italian ryegrass” value in assay [3] came to 98%. In addition, the “Growth inhibition rate (%) Corn” value in [4] is 50%. Besides, the “Growth inhibition rate (%) Wild oat” value in assay [5] amounted to 95%. In [6], the “Growth inhibition rate (%) Redroot pigweed” value came out at 0%. Further, the “Growth inhibition rate (%) Rice” value in [7] is 90%. For the same compound, the “Growth inhibition rate (%) Green foxtail” value in assay [8] is 98%. The “Growth inhibition rate (%) Soybean” value in assay [9] is 30%. In addition, the “Growth inhibition rate (%) Crabgrass” value in assay [10] is given as 98%.
As to `Cc1ccc(Oc2nc3cc(F)ccc3o2)cc1-c1c(O)cnn(C)c1=O` [Compound 2-184], in [1], the “Growth inhibition rate (%) Wheat” value was found to be 10%. Moreover, the “Growth inhibition rate (%) Barnyardgrass” value in [2] is reported as 95%. Besides, the “Growth inhibition rate (%) Italian ryegrass” value in [3] was 35%. In assay [4], the “Growth inhibition rate (%) Corn” value is 40%. Moreover, in assay [5], the “Growth inhibition rate (%) Wild oat” value is reported as 30%. Besides, the “Growth inhibition rate (%) Redroot pigweed” value in [6] is recorded as 0%. Moreover, the “Growth inhibition rate (%) Rice” value in [7] is given as 60%. The “Growth inhibition rate (%) Green foxtail” value in assay [8] amounted to 99%. In assay [9], the “Growth inhibition rate (%) Soybean” value stood at 30%. The “Growth inhibition rate (%) Crabgrass” value in [10] came out at 95%.
Turning to `Cc1ccc(Oc2nc3cccc(Cl)c3o2)cc1-c1c(O)cnn(C)c1=O` [Compound 2-185], the “Growth inhibition rate (%) Wheat” value in assay [1] is 0%. For the same compound, the “Growth inhibition rate (%) Barnyardgrass” value in assay [2] is 93%. The “Growth inhibition rate (%) Italian ryegrass” value in assay [3] turned out to be 0%. Also, the “Growth inhibition rate (%) Corn” value in assay [4] is listed as 10%. In addition, the “Growth inhibition rate (%) Wild oat” value in [5] worked out at 0%. In addition, the “Growth inhibition rate (%) Redroot pigweed” value in assay [6] amounted to 0%. In addition, in assay [7], the “Growth inhibition rate (%) Rice” value is recorded as 0%. In assay [8], the “Growth inhibition rate (%) Green foxtail” value amounted to 88%. In assay [9], the “Growth inhibition rate (%) Soybean” value is reported as 20%. The “Growth inhibition rate (%) Crabgrass” value in assay [10] stood at 85%.
For the compound `Cc1ccc(Oc2nc3ccc(Cl)cc3o2)cc1-c1c(O)cnn(CC2CC2)c1=O` [Compound 2-186], the “Growth inhibition rate (%) Wheat” value in assay [1] is reported as 0%. In addition, in assay [2], the “Growth inhibition rate (%) Barnyardgrass” value was 90%. In addition, the “Growth inhibition rate (%) Italian ryegrass” value in assay [3] is recorded as 0%. Besides, the “Growth inhibition rate (%) Corn” value in assay [4] was 98%. Besides, the “Growth inhibition rate (%) Wild oat” value in assay [5] amounted to 25%. Moreover, in assay [6], the “Growth inhibition rate (%) Redroot pigweed” value was 0%. For the same compound, the “Growth inhibition rate (%) Rice” value in assay [7] turned out to be 0%. In addition, the “Growth inhibition rate (%) Green foxtail” value in assay [8] stood at 99%. The “Growth inhibition rate (%) Soybean” value in [9] is listed as 15%. Further, the “Growth inhibition rate (%) Crabgrass” value in assay [10] is listed as 99%.
